Measurements taken from US20250066370A1, “BICYCLIC TRIAZINE DERIVATIVES FOR THE TREATMENT OF CANCER” (DEUTSCHES KREBSFORSCHUNGSZENTRUM, priority 2022, published 2025).

Tests used:
[1] = tested on: MDA-MB-231, human breast cancer cells; test: Proliferation assay MDA-MB-231 (crystal violet); type: cell-based; details: 96 h, MDA-MB-231 parental cells, 4 days, median, read-out: Prolif-MDA MB-231, IC50 - [mol/l] (median)
Procedure: (§1) Human tumour cells were originally obtained from the American Type Culture Collection (ATCC), or from the Deutsche Sammlung von Mikroorganismen und Zellkulturen (DSMZ, German Collection of Microorganisms and Cell Cultures). Cultivated tumour cells (CAL-120, human breast adenocarcinoma cells, DSMZ ACC-459; MDA-MB-231, human breast cancer cells, ATCC HTB-26) were plated at a density of 4,000 cells/well in a 96-well multitier plate in 200 microL of their respective growth medium supplemented 10% fetal calf serum. After 24 hours, the cells of one plate (zero-point plate) were stained with crystal violet (see below), while the medium of the other plates was supplemented with the test substances in various concentrations (0 micromol/L, as well as in the range of 0.01-10 micromol/L; the final concentration of the solvent dimethyl sulfoxide was adjusted to 0.1%) using a Tecan HP D300 Digital Dispenser. The cells were incubated for 4 days in the presence of test substances. Cell proliferation was determined by staining the cells with crystal violet: the cells were fixed by adding 20 microL/measuring point of an 11% glutaric aldehyde solution for 15 minutes at room temperature. After three washing cycles of the fixed cells with water, the plates were dried at room temperature. The cells were stained by adding 100 microL/measuring point of a 0.1% crystal violet solution (pH 3.0). After three washing cycles of the stained cells with water, the plates were dried at room temperature. The dye was dissolved by adding 100 microL/measuring point of a 10% acetic acid solution. The extinction was determined by photometry at a wavelength of 595 nm. The change of cell number, in percent, was calculated by normalization of the measured values to the extinction values of the zero-point plate (=0%) and the extinction of the untreated (0 μM) cells (=100%). The IC50 values (inhibitory concentration at 50% of maximal effect) were determined by means of a 4 parameter fit.

CDK9/CyclinT1 = CDK9/CyclinT1 (Homo sapiens (Human), UniProt P50750); test: CDK9/CycT1 high ATP kinase assay (TR-FRET); type: biochemical; details: 2 mM ATP (high ATP); median; read-out: CDK9/CyclinT1, 2 mM ATP (high ATP), IC50 - [mol/l] (median)
Procedure: CDK9/CycT1-inhibitory activity of compounds of the present invention at a high ATP concentration after preincubation of enzyme and test compounds was quantified employing the CDK9/CycT1 TR-FRET assay as described in the following paragraphs.
Recombinant full-length His-tagged human CDK9 and CycT1, expressed in insect cells and purified by Ni-NTA affinity chromatography, were purchased from Life Technologies (Cat. No PV4131). As substrate for the kinase reaction biotinylated peptide biotin-Ttds-YISPLKSPYKISEG (C-terminus in amide form) was used which can be purchased e.g. form the company JERINI peptide technologies (Berlin, Germany).
For the assay 50 nanoL of a 100 fold concentrated solution of the test compound in DMSO was pipetted into either a black low volume 384 well microtiter plate or a black 1536 well microtiter plate (both Greiner Bio-One, Frickenhausen, Germany), 2 microL of a solution of CDK9/CycT1 in aqueous assay buffer [50 millimol/L Tris/HCl PH 8.0, 10 millimol/L MgCl2, 1.0 millimol/L dithiothreitol, 0.1 millimol/L sodium ortho-vanadate, 0.01% (v/v) Nonidet-P40 (Sigma)] were added and the mixture was incubated for 15 min at 22° C. to allow pre-binding of the test compounds to the enzyme before the start of the kinase reaction. Then the kinase reaction was started by the addition of 3 microL of a solution of adenosine-tri-phosphate (ATP, 3.3 millimol/L=>final conc. in the 5 microL assay volume is 2 millimol/L) and substrate (1.25 micromol/L=>final conc. in the 5 microL assay volume is 0.75 micromol/L) in assay buffer and the resulting mixture was incubated for a reaction time of 25 min at 22° C. The concentration of CDK9/CycT1 was adjusted depending of the activity of the enzyme lot and was chosen appropriate to have the assay in the linear range, typical concentrations were in the range of 0.5 microg/ml. The reaction was stopped by the addition of 3 microL of a solution of TR-FRET detection reagents (0.33 micromol/L streptavidine-XL665 [Cisbio Bioassays, Codolet, France] and 1.67 nanomol/L anti-RB (pSer807/pSer811)-antibody from BD Pharmingen [#558389] and 2 nanomol/L LANCE EU-W1024 labeled anti-mouse IgG antibody [Perkin-Elmer, product no. AD0077]) in an aqueous EDTA-solution (167 millimol/L EDTA, 0.2% (w/v) bovine serum albumin in 100 millimol/L HEPES pH 7.5).
The resulting mixture was incubated 1 h at 22° C. to allow the formation of complex between the phosphorylated biotinylated peptide and the detection reagents. Subsequently the amount of phosphorylated substrate was evaluated by measurement of the resonance energy transfer from the Eu-chelate to the streptavidine-XL. Therefore, the fluorescence emissions at 620 nm and 665 nm after excitation at 350 nm was measured in a TR-FRET reader, e.g. a Pherastar (BMG Labtechnologies, Offenburg, Germany) or a Viewlux (Perkin-Elmer). The ratio of the emissions at 665 nm and at […] was taken as the measure for the amount of phosphorylated substrate. The data were normalised (enzyme reaction without inhibitor=0% inhibition, all other assay components but no enzyme=100% inhibition).

[2] = tested on: CAL-120, human breast adenocarcinoma cells; test: Proliferation assay CAL-120 (crystal violet); type: cell-based; details: 96 h, CAL-120 parental cells, 4 days, median, read-out: Prolif-CAL-120, IC50 - [mol/l] (median)
Procedure: as §1

CDK12 = CDK12 (Homo sapiens (Human), UniProt Q9NYV4); test: CDK12 nuclear protein level: immunofluorescence/high content analysis in CAL-120 cells; type: cell-based; details: 24 h, nuclear CDK12 staining intensity, median, read-out: CDK12 degradation IF, DC50 - [mol/l] (median)
Procedure: In the context of the present invention, the term “DC50 CDK12” refers to the DC50 values obtained according to the assay described in this section (7) herein below, i.e. the DC50 values for the degradation of CDK12.
CAL-120 human breast cancer cells (DSMZ ACC 459) are seeded in 1536-well microtiter plates (800 cells per well) containing 50 nanoL of compounds in Dose-Response. Control wells received DMSO or Example 4. Plates are then incubated for 24 h at 37° C. in an humidified incubator and fixed with 4% PFA for 10 min. Then immunofluorescence (IF) against CDK12 (CellSignalling CDK12 Antibody #11973, rabbit, 1:100 dilution) is performed using standard IF protocols. Cells are then stained with Hoechst 33342 (Life Technologies, H-1399, 0.1 microg/ml) and imaged on an automated confocal microscopy system (e.g. Perkin Elmer Opera Phenix). Nuclear and cytoplasmic intensity as well as the nuclear/cytoplasmic intensity ratio is determined by automated image analysis using custom generated scripts (MetaXpress). Data is then transferred to Genedata Screener software, normalized to DMSO and control and DC50 values (degrading concentration to achieve 50% reduction of nuclear CDK12 staining intensity relative to controls) are reported.

Sequence of CDK12 (Q9NYV4 whole entry): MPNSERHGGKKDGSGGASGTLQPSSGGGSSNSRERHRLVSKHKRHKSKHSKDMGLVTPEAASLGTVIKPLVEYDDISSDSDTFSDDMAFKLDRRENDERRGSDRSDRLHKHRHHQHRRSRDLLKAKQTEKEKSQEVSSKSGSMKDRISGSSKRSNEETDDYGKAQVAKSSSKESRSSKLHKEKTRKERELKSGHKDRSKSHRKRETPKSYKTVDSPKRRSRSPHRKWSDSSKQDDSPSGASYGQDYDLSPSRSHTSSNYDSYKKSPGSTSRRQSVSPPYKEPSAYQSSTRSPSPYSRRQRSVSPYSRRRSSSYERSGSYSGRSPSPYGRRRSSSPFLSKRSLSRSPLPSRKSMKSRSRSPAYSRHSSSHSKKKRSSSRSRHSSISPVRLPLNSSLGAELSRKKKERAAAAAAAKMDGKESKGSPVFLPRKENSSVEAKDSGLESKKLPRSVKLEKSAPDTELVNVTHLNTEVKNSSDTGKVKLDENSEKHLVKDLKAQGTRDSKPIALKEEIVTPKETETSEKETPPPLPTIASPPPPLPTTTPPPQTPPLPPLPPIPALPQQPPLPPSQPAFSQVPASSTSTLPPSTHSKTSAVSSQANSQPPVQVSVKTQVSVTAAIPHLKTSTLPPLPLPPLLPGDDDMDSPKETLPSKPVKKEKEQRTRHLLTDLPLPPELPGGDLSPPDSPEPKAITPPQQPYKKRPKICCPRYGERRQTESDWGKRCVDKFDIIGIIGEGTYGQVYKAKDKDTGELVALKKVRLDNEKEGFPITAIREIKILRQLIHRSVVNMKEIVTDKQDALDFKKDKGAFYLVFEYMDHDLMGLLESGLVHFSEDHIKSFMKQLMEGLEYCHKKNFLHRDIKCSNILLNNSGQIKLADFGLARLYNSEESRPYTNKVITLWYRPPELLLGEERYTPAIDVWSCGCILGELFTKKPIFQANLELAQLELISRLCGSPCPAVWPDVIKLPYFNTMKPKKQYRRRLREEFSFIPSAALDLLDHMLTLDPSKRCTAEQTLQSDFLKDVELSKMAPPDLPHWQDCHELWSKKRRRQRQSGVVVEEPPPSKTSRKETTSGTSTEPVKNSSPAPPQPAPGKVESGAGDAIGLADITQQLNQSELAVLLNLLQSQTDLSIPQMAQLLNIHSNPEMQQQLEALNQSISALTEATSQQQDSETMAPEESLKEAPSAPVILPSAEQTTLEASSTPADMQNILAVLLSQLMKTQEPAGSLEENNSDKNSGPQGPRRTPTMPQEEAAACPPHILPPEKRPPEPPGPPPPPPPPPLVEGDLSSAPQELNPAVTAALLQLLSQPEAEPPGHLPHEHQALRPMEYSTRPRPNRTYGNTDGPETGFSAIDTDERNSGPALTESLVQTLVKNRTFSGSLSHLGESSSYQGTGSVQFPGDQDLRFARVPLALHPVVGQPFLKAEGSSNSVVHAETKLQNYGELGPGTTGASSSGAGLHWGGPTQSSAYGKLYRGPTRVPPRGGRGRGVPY
Sequence of CDK12 (O75909 whole entry partner): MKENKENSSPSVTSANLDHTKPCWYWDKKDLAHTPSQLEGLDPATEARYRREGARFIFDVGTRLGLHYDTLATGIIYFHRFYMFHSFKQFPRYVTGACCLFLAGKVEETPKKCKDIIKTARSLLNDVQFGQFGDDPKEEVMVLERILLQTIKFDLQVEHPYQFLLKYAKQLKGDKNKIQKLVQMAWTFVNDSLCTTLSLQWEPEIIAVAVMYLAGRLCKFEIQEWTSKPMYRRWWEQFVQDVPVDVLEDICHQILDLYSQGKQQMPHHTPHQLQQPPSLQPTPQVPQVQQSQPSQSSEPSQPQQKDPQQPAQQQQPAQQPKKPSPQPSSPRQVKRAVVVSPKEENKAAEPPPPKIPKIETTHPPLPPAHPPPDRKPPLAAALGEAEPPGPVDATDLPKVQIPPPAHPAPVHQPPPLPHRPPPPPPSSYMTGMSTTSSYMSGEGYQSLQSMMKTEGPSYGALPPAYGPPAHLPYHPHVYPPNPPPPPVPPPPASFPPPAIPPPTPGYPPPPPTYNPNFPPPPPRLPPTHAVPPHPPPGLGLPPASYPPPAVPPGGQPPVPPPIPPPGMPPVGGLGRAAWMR
Sequence of CDK9/CyclinT1 (P50750 whole entry): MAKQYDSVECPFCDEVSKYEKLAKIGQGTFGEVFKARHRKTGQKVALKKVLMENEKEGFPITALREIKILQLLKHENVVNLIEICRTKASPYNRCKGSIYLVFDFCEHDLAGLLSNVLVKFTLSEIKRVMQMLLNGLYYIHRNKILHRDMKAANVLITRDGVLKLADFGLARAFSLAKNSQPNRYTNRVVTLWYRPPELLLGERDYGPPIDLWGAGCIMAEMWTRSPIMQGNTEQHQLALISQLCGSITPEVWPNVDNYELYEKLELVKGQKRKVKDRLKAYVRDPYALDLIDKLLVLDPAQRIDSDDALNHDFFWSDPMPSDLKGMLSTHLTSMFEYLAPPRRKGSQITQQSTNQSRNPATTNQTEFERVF
Sequence of CDK9/CyclinT1 (O60563 whole entry partner): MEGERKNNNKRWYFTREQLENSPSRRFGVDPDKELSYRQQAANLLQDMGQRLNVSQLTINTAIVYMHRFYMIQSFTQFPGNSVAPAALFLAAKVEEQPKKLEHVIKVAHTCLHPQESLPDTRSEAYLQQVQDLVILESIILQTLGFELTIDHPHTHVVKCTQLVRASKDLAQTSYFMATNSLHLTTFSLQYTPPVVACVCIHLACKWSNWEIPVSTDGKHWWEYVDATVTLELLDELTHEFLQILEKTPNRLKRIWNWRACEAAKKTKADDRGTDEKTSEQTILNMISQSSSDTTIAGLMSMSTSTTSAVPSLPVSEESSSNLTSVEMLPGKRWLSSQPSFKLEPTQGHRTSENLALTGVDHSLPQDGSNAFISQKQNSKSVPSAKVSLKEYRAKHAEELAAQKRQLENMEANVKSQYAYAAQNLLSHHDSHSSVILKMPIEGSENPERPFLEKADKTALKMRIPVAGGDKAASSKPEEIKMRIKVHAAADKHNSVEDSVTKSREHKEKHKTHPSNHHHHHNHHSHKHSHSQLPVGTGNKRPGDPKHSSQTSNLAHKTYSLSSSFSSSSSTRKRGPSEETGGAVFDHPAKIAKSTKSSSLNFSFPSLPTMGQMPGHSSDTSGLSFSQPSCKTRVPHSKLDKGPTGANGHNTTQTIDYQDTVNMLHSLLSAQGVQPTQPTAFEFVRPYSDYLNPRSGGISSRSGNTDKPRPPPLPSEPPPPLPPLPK

IC50 (CDK9/CyclinT1) [nM] | DC50 (CDK12) [nM] | SMILES | IC50 [1] [nM] | IC50 [2] [nM]
> 20000 | > 1000 | FC(F)(F)Oc1ccc(-c2cnc(CNc3nc(N4CCOCC4)nc4c(Br)cnn34)[nH]2)cc1 [Example 4, 8-bromo-2-(morpholin-4-yl)-N-({5-[4-(trifluoromethoxy)phenyl]-1H-imidazol-2-yl}methyl)pyrazolo[1,5-a][1,3,5]triazin-4-amine] | 123 | 103
> 20000 | > 1000 | FC(F)(F)Oc1ccc(-c2cnc(CNc3nc(N4CCOCC4)nc4c(C(F)(F)F)cnn34)[nH]2)cc1 [Example 10, 2-(morpholin-4-yl)-N-({5-[4-(trifluoromethoxy)phenyl]-1H-imidazol-2-yl}methyl)-8-(trifluoromethyl)pyrazolo[1,5-a][1,3,5]triazin-4-amine] | 123 | 69.8
17800 | 1000 | FC(F)(F)Oc1ccc(-c2nnc(CNc3nc(N4CCOCC4)nc4c(C(F)(F)F)cnn34)[nH]2)cc1 [Example 5, 2-(morpholin-4-yl)-N-({5-[4-(trifluoromethoxy)phenyl]-4H-1,2,4-triazol-3-yl}methyl)-8-(trifluoromethyl)pyrazolo[1,5-a][1,3,5]triazin-4-amine] | 319 | 319
1890 | > 1000 | Cc1ccc(-c2nnc(CNc3nc(N4CCOCC4)nc4c(C(F)(F)F)cnn34)[nH]2)cn1 [Example 22, N-{[5-(6-methylpyridin-3-yl)-4H-1,2,4-triazol-3-yl]methyl}-2-(morpholin-4-yl)-8-(trifluoromethyl)pyrazolo[1,5-a][1,3,5]triazin-4-amine] | 286 | 333
> 20000 | 665 | FC(F)(F)Oc1ccc(-c2nnc(CNc3nc(N4CCOCC4)nn4c(C(F)(F)F)cnc34)[nH]2)cc1 [Example 14, 2-(morpholin-4-yl)-N-({5-[4-(trifluoromethoxy)phenyl]-4H-1,2,4-triazol-3-yl}methyl)-7-(trifluoromethyl)imidazo[2,1-f][1,2,4]triazin-4-amine] | 319 | 248
> 19100 | 950 | FC(F)(F)c1ccc(-c2cnc(CNc3nc(N4CCOCC4)nc4c(C(F)(F)F)cnn34)[nH]2)cc1 [Example 9, 2-(morpholin-4-yl)-8-(trifluoromethyl)-N-({5-[4-(trifluoromethyl)phenyl]-1H-imidazol-2-yl}methyl)pyrazolo[1,5-a][1,3,5]triazin-4-amine] | 190 | 109
847 | > 1000 | FC(F)(F)c1ccc(-c2nnc(CNc3nc(N4CCOCC4)nn4c(C(F)(F)F)cnc34)[nH]2)cn1 [Example 20, 2-(morpholin-4-yl)-7-(trifluoromethyl)-N-({5-[6-(trifluoromethyl)pyridin-3-yl]-4H-1,2,4-triazol-3-yl}methyl)imidazo[2,1-f][1,2,4]triazin-4-amine] | 52.9 | 83.5
624 | > 1000 | Cc1ccc(-c2nnc(CNc3nc(N4CCOCC4)nn4c(C(F)(F)F)cnc34)[nH]2)cn1 [Example 23, N-{[5-(6-methylpyridin-3-yl)-4H-1,2,4-triazol-3-yl]methyl}-2-(morpholin-4-yl)-7-(trifluoromethyl)imidazo[2,1-f][1,2,4]triazin-4-amine] | 75.8 | 99.3
